Results: patent US7183324B2, “2,3,4-substituted cyclopentanones as therapeutic agents” (Allergan, Inc., priority 2004, dated 2007)

Tests used:
Beagle dogs [1] = assay: Intraocular pressure in dogs (pneumatonometry); assay type: in vivo; details: dog, topical 25 μL drop, 5 day study
Method: (§1) • Intraocular Pressure (IOP) Intraocular pressure studies in dogs involved pneumatonometry performed in conscious, Beagle dogs of both sexes (10–15 kg). The animals remained conscious throughout the study and were gently restrained by hand. Drugs were administered topically to one eye as a 25 μL volume drop, the other eye received 25 μL vehicle (0.1% polysorbate 80:10 mM TRIS) as a control. Proparacaine (0.1%) was used for corneal anesthesia during tonometry. Intraocular pressure was determined just before drug administration and at 2, 4 and 6 hr thereafter on each day of the 5 day study. Drug was administered immediately after the first IOP reading. • An analogous procedure was carried out with cynomolgus monkeys with measurements at 2, 4, 6, and 24 hours after a single dose. • Pupil Diameter • Dog pupil diameter was measured using an optistick (a mm ruler which included half-circle references of standard widths (mm) for reference. Gently restraining the dog by hand, pupil diameter was determined by matching a half-circle to the pupil in normal room light. In dogs with very dark pupils a specialized penlight was used, but only very briefly to avoid pupil constriction. Pupil diameter was measured at the same time as IOP and hyperemia. • Ocular Surface Hyperemia • Ocular surface hyperemia was visually assessed and scored according to a system typically used clinically.

Beagle dogs [2] = assay: Ocular surface hyperemia in dogs; assay type: in vivo; details: dog, topical, score: trace 0.5, mild 1, moderate 2, severe 3
Method: as §1
• Ocular surface hyperemia was evaluated at the same time points as intraocular pressure measurement. It should be noted that untreated dog eyes frequently have a pink/red tone. Thus, values of trace or even mild are not necessarily out of the normal range.

HEP2 = target: T1, HEP2 (Homo sapiens, UniProt P43116); assay: Radioligand binding, EP2 receptor; details: [3H]PGE2 5 nM, HEK-293 membranes
T1 construct: expressed in transfected cells; host or cells: HEK-293
T1 sequence (P43116 whole entry): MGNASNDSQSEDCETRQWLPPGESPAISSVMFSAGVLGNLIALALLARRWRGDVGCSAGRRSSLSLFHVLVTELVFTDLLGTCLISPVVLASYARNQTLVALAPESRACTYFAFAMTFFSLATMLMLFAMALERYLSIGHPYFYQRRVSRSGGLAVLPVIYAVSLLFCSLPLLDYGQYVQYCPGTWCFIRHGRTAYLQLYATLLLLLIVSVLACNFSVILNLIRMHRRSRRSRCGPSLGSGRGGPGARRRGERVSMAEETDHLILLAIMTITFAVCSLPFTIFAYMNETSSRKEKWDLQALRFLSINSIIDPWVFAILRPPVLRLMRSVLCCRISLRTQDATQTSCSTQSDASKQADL
Method: (§2) HEK-293 cells stably expressing the human or feline FP receptor, or EP1, EP2, or EP4 receptors were washed with TME buffer, scraped from the bottom of the flasks, and homogenized for 30 sec using a Brinkman PT 10/35 polytron. TME buffer was added to achieve a final 40 ml volume in the centrifuge tubes (the composition of TME is 100 mM TRIS base, 20 mM MgCl2, […]; 10N HCl is added to achieve a pH of 7.4).
(§3) The cell homogenate was centrifuged at 19000 r.p.m. for 20 min at 4° C. using a Beckman Ti-60 rotor. The resultant pellet was resuspended in TME buffer to give a final 1 mg/ml protein concentration, as determined by Biorad assay. Radioligand binding competition assays vs. [^3H-]17-phenyl PGF2α (5 nM) were performed in a 100 μl volume for 60 min. Binding reactions were started by adding plasma membrane fraction. The reaction was terminated by the addition of 4 ml ice-cold TRIS-HCl buffer and rapid filtration through glass fiber GF/B filters using a Brandel cell harvester. The filters were washed 3 times with ice-cold buffer and oven dried for one hour. Non-specific binding was determined with 10 uM unlabeled 17-phenyl PGF2α.
(§4) [^3H-] PGE2 (5 nM; specific activity 180 Ci mmol) was used as the radioligand for EP receptors. Binding studies employing EP1, EP2, EP3, EP4 were performed in duplicate in at least three separate experiments. A 200 μl assay volume was used. Incubations were for 60 min at 25° C. and were terminated by the addition of 4 ml of ice-cold 50 mM TRIS-HCl, followed by rapid filtration through Whatman GF/B filters and three additional 4 ml washes in a cell harvester (Brandel). Non-specific binding determined with 10^−5M of unlabeled PGE2.

HEP4 = target: T2, HEP4 (Homo sapiens, UniProt P35408); assay: Radioligand binding, EP4 receptor; details: [3H]PGE2 5 nM, HEK-293 membranes
T2 construct: expressed in transfected cells; host or cells: HEK-293
T2 sequence (P35408 whole entry): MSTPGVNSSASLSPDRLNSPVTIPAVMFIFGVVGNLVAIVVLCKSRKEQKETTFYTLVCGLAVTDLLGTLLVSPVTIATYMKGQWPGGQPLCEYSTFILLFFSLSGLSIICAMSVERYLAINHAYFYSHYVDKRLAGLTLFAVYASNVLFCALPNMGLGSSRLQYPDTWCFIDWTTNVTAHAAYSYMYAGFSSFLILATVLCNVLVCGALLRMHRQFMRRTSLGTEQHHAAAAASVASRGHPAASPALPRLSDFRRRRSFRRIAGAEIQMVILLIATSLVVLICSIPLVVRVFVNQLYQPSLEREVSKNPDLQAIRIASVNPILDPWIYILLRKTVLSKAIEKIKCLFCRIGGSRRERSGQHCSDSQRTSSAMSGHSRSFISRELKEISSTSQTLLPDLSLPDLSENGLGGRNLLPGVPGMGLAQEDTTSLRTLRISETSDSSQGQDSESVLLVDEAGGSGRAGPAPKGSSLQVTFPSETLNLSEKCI
Method: as §2, §3, §4

hEP3A/Gqi5 = target: T3, hEP3A/Gqi5 (Homo sapiens, UniProt P43115); assay: FLIPR calcium signal, hEP3A/Gqi5; assay type: cell-based; details: HEK-293 (EBNA) cells, read-out: FUNCTIONAL EC50 HEP3A
T3 construct: expressed in transfected cells; host or cells: HEK-293 (EBNA)
T3 sequence (P43115 1-390): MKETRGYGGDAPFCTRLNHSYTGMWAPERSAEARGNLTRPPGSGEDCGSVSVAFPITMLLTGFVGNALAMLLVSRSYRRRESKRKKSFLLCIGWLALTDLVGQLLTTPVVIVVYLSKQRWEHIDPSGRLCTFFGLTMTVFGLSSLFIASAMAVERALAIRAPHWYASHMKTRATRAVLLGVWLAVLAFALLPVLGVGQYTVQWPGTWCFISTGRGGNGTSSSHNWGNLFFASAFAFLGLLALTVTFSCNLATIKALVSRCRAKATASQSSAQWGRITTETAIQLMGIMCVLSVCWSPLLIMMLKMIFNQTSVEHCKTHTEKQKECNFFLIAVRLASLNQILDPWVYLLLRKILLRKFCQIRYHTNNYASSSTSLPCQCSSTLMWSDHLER
Method: (§5) HEK-293 (EBNA) cells, stably expressing one type or subtype of recombinant human prostaglandin receptors (prostaglandin receptors expressed: hDP/Gqs5; hEP1; hEP2/Gqs5; hEP3A/Gqi5; hEP4/Gqs5; hFP; hIP; hTP), were cultured in 100 mm culture dishes in high-glucose DMEM medium containing 10% fetal bovine serum, 2 mM 1-glutamine, 250 μg/ml geneticin (G418) and 200 μg/ml hygromycin B as selection markers, and 100 units/ml penicillin G, 100 μg/ml streptomycin and 0.25 μg/ml amphotericin B. • (b) Calcium Signal Studies on the FLIPR™
(§6) Cells were seeded at a density of 5×10^4 cells per well in Biocoat® Poly-D-lysine-coated black-wall, clear-bottom 96-well plates (Becton-Dickinson) and allowed to attach overnight in an incubator at 37° C. Cells were then washed two times with HBSS-HEPES buffer (Hanks Balanced Salt Solution without bicarbonate and phenol red, 20 mM HEPES, pH 7.4) using a Denley Cellwash plate washer (Labsystems). After 45 minutes of dye-loading in the dark, using the calcium-sensitive dye Fluo-4 AM at a final concentration of 2 μM, plates were washed four times with HBSS-HEPES buffer to remove excess dye leaving 100 μl in each well. Plates were re-equilibrated to 37° C. for a few minutes.
(§7) Cells were excited with an Argon laser at 488 nm, and emission was measured through a 510–570 nm bandwidth emission filter (FLIPR™, Molecular Devices, Sunnyvale, Calif.). Drug solution was added in a 50 μl volume to each well to give the desired final concentration. The peak increase in fluorescence intensity was recorded for each well. On each plate, four wells each served as negative (HBSS-HEPES buffer) and positive controls (standard agonists: BW245C (hDP); PGE2 (hEP1; hEP2/Gqs5; hEP3A/Gqi5; hEP4/Gqs5); PGF2α (hFP); carbacyclin (hIP); U46619 (hTP), depending on receptor). The peak fluorescence change in each drug-containing well was then expressed relative to the controls.
(§8) Compounds were tested in a high-throughput (HTS) or concentration-response (CoRe) format. In the HTS format, forty-four compounds per plate were examined in duplicates at a concentration of 10^−5 M. To generate concentration-response curves, four compounds per plate were tested in duplicates in a concentration range between 10^−5 and 10^−11 M. The duplicate values were averaged. In either, HTS or CoRe format each compound was tested on at least 3 separate plates using cells from different passages to give an n≧3.

hEP4/Gqs5 = target: T4, hEP4/Gqs5 (Homo sapiens, UniProt P35408); assay: FLIPR calcium signal, hEP4/Gqs5; assay type: cell-based; details: HEK-293 (EBNA) cells, read-out: FUNCTIONAL EC50 HEP4
T4 construct: expressed in transfected cells; host or cells: HEK-293 (EBNA)
T4 sequence (P35408 whole entry): as the sequence (P35408 whole entry) above
Method: as §5, §6, §7, §8

hTP = target: T5, hTP (Homo sapiens, UniProt P21731); assay: FLIPR calcium signal, hTP; assay type: cell-based; details: HEK-293 (EBNA) cells, read-out: FUNCTIONAL EC50 HTP
T5 construct: expressed in transfected cells; host or cells: HEK-293 (EBNA)
T5 sequence (P21731 1-343): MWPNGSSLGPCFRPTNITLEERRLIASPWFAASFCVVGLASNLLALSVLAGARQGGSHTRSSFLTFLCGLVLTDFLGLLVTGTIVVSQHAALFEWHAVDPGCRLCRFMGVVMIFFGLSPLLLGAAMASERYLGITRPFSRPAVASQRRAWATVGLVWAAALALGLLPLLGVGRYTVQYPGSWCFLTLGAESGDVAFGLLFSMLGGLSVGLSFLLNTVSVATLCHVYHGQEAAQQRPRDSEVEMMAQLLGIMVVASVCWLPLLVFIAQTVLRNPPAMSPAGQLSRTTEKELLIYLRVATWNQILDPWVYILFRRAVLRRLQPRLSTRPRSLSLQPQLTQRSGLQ
Method: as §5, §6, §7, §8

HEP3D = target: T6, HEP3D (Homo sapiens, UniProt P43115); assay: Radioligand binding, EP3 receptor; details: [3H]PGE2 5 nM
T6 sequence (P43115 1-374 isoform P43115-4): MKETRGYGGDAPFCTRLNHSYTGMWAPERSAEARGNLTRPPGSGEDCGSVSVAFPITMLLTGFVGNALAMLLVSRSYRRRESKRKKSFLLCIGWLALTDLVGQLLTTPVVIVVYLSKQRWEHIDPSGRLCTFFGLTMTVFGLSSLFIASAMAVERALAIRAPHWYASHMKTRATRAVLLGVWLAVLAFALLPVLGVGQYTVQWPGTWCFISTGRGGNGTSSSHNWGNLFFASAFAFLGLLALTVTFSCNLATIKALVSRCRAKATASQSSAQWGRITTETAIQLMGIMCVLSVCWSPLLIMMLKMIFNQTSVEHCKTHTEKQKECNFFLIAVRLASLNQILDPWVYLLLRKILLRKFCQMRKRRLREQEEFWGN
Method: as §2, §3, §4

| SMILES | IC50 (HEP2) | IC50 (HEP4) | EC50 (hEP3A/Gqi5) | EC50 (hEP4/Gqs5) | EC50 (hTP) | IC50 (HEP3D) | Max. ΔIOP (Beagle dogs [1]; Conc. 0.03%) | Max hyperemia (Beagle dogs [2]; Conc. 0.03%) | Max. ΔIOP (Beagle dogs [1]; Conc. 0.1%) | Max hyperemia (Beagle dogs [2]; Conc. 0.1%) |
| --- | --- | --- | --- | --- | --- | --- | --- | --- | --- | --- |
| CC(C)OC(=O)CSCCCS[C@H]1C(=O)C[C@@H](CO)[C@@H]1/C=C/C(O)Cc1ccccc1 (single isomer, unassigned) [Compound 150, {3-[3-Hydroxymethyl-2-(3-hydroxy-4-phenyl-but-1-enyl)-5-oxo-cyclopentylsulfanyl]-propylsulfanyl}-acetic acid isopropyl ester] | – | – | – | – | – | – | −5.5 mm Hg | 0.9 | – | – |
| O=C(O)CSCCCS[C@H]1C(=O)CC[C@@H]1/C=C/C(O)CCc1ccc2ccccc2c1 (single isomer, unassigned) [Compound 153] | > 10000 nM | 140 nM | > 10000 nM | 0.3 nM | > 10000 nM | – | – | – | −4.4 mm Hg | 1.8 |
| O=C(O)CSCCCS[C@H]1C(=O)CC[C@@H]1/C=C/C(O)CCc1ccc2ccccc2c1 (single isomer, unassigned) [drawing 36] | 8100 nM | 140 nM | – | 1 nM | – | – | – | – | – | – |
| O=C(O)CSCCCS[C@H]1C(=O)C[C@@H](CO)[C@@H]1/C=C/C(O)CCc1ccc2ccccc2c1 (stereo partly drawn) [Compound 141b, {3-[(1R,2S,3R)-3-Hydroxymethyl-2-((E)-3-hydroxy-5-naphthalen-2-yl-pent-1-enyl)-5-oxo-cyclopentylsulfanyl]-propylsulfanyl}-acetic acid] | – | 400 nM | – | 219 nM | – | – | – | – | −1.6 mm Hg | 0.7 |
| O=C(O)CSCCCS[C@H]1C(=O)CC[C@@H]1/C=C/C(O)CCc1cc2ccccc2s1 (stereo partly drawn) [drawing 25, {3-[(1R,2R)-2-((E)-5-Benzo[b]thiophen-2-yl-3-hydroxy-pent-1-enyl)-5-oxo-cyclopentylsulfanyl]-propylsulfanyl}-acetic acid] | > 10000 nM | 44 nM | 1950 nM | 3.7 nM | > 10000 nM | > 10000 nM | – | – | – | – |

Further lines, with some results ahead:

| IC50 (HEP2) | IC50 (HEP4) | EC50 (hEP3A/Gqi5) | EC50 (hEP4/Gqs5) | EC50 (hTP) | IC50 (HEP3D) | SMILES | Max. ΔIOP (Beagle dogs [1]; Conc. 0.03%) | Max hyperemia (Beagle dogs [2]; Conc. 0.03%) | Max. ΔIOP (Beagle dogs [1]; Conc. 0.1%) | Max hyperemia (Beagle dogs [2]; Conc. 0.1%) |
| --- | --- | --- | --- | --- | --- | --- | --- | --- | --- | --- |
| – | 19 nM | > 10000 nM | 0.09 nM | > 10000 nM | > 10000 nM | COC(=O)CSCCCS[C@H]1C(=O)CC[C@@H]1/C=C/C(O)Cc1ccccc1 (single isomer, unassigned) [drawing 46] | – | – | – | – |
| – | 11 nM | > 10000 nM | – | > 10000 nM | > 10000 nM | O=C(O)CSCCCS[C@H]1C(=O)CC[C@@H]1/C=C/C(O)Cc1ccccc1 (single isomer, unassigned) [drawing 48] | – | – | – | – |
| > 10000 nM | 45 nM | – | 2.4 nM | – | > 10000 nM | O=C(O)CSCCCS[C@H]1C(=O)CC[C@@H]1/C=C/C(O)CCc1cc2ccccc2s1 (stereo partly drawn) [drawing 26, {3-[(1R,2R)-2-((E)-5-Benzo[b]thiophen-2-yl-3-hydroxy-pent-1-enyl)-5-oxo-cyclopentylsulfanyl]-propylsulfanyl}-acetic acid] | – | – | – | – |
| > 10000 nM | 300 nM | – | 11 nM | – | – | COC(=O)CSCCCS[C@H]1C(=O)CC[C@@H]1/C=C/C(O)CCc1cc2ccccc2s1 (stereo partly drawn) [drawing 28, {3-[(1R,2R)-2-((E)-5-Benzo[b]thiophen-2-yl-3-hydroxy-pent-1-enyl)-5-oxo-cyclopentylsulfanyl]-propylsulfanyl}-acetic acid methyl ester] | – | – | – | – |
| – | 26 nM | > 10000 nM | 0.4 nM | > 10000 nM | > 10000 nM | O=C(O)CSCCCS[C@H]1C(=O)CC[C@@H]1/C=C/C(O)Cc1ccc2ccccc2c1 (stereo partly drawn) [{3-[(1R,2R)-2-((E)-3-Hydroxy-4-naphthalen-2-yl-but-1-enyl)-5-oxo-cyclopentylsulfanyl]-propylsulfanyl}-acetic acid] | – | – | – | – |
